Values after ≈ are worked out from the molar mass of the structure shown.
What was measured:
[1] = target: OleD variant P67T/S312F/A242L/Q268V (Streptomyces antibioticus, UniProt Q53685, A242L/P67T/Q268V/S132F); test: Determination of equilibrium constants of the glucoside donor/UDP reaction; assay type: biochemical; settings: with UDP, Tris-HCl 50 mM pH 8.5, 298K, relative to UDP-Glc (33a); calculated from Keq
Experimental: Equilibrium constants (Keq, pH8.5) were also determined for 1, 2, 4, 7, and 9 and utilized to calculate the corresponding Gibbs free energy according to equation (1).
ΔG°pH8.5=−RT ln(Keq,pH8.5)
Reactions contained 21 μM (200 μg) OleD variant P67T/S312F/A242L/Q268V, 1 mM UDP, and 1 mM β-D-glucopyranoside donor (1, 2, 4, 7, or 9) in Tris-HCl buffer (50 mM, pH 8.5) in a final total volume of 200 μl. Multiple time course evaluations were conducted to determine the time at which each reaction reached equilibrium (<2 min for 7, 9; <90 min for 1, 4; 200 min for 2). Following, each analysis was conducted in triplicate to the minimum observed time point for equilibrium and samples were processed and evaluated as described below to determine concentrations of UDP to 33a (UDP-α-D-glucose). […] Glucoside and aglycon concentrations were inferred from the determined concentrations of UDP and 33a.

OleD variant TDP-16 [2] = target: T1, OleD variant TDP-16 (Streptomyces antibioticus, UniProt Q53685, A242L/P67T/Q268V/S132F); test: Single enzyme coupled colorimetric screen of putative aglycon acceptors (410 nm); assay type: biochemical; settings: 0.5 mM 9, 0.5 mM acceptor, 5 μM UDP, TDP-16, 410 nm over 480 min
T1 sequence (Q53685 other isoform, or with tags, fused parts or gaps P55A/P67T/R82V/R83E/T84P/S132F/A242L/Q268V): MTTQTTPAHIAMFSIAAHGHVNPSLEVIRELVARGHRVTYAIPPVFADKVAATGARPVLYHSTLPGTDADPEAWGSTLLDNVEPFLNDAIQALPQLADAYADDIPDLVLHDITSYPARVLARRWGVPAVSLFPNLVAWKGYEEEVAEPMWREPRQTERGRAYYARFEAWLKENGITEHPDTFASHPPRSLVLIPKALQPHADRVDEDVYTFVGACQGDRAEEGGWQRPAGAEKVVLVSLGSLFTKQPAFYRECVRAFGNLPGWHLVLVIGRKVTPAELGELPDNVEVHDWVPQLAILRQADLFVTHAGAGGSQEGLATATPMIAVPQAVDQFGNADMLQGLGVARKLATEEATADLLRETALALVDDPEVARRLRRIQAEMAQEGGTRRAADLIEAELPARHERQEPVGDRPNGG
Experimental: Specifically, each 100 PI reaction in the 96-well plate contained the sugar donor 9 (0.5 mM), a putative aglycon acceptor (0.5 mM), a catalytic amount of UDP (5 3M) and TDP-16 (11 3M) and reaction progress was monitored at 410 nm over 480 min. […] Based upon this cumulative rapid analysis, […] (62-103) led to a positive response (designated as three standard deviations above the mean for control reactions), 37 of which (62-93, 96, 97, 99, 101, 103) were subsequently confirmed by HPLC and/or LC/MS to lead to products consistent with glucoside formation.
Reactions containing 10.5 μM (50 μg) OleD variant TDP-16, 5 μM of UDP, 0.5 mM final acceptor (58 [as a positive control] and 62-111), and 0.5 mM 2-chloro-4-nitrophenyl-β-D-glucoside (9) in Tris-HCl buffer (50 mM, pH 8.5) with a final volume of 100 μl were prepared in a 96 well flat bottom Bacti plate (0.4 mL well^−1; Nagle Nunc International, Rochester, N.Y., USA). Absorbance measurements were recorded every 2 min at 410 nm for 8 hours on a FLUOstar Optima plate reader (BMG, Durham, N.C., USA) with the plate shaken within the reader for 5 seconds before collection of each time point. Reactions containing final acceptor were run at n=1, control reactions lacking final acceptor were run at n=6, and control reactions lacking both final acceptor and UDP were run at n=3. […]

OleD variant TDP-16 [3] = target: T1, OleD variant TDP-16; test: 2-chloro-4-nitrophenyl glycoside screening for NDP-sugar formation; assay type: biochemical
Experimental: Aliquots were removed at various time points, mixed with an equal volume of ddH2O, frozen in a bath of dry ice and acetone, and stored at −20° C. Following, samples were thawed at 4° C. and filtered through a MultiScreen Filter Plate (from Millipore, Billerica, Mass., USA) according to manufacturer's instructions. Samples were evaluated for formation of NDPsugar by analytical reverse-phase HPLC with a 250 mm×4.6 mm Gemini-NX 5μ C18 column (from Phenomenex, Torrance, Calif., USA) using a linear gradient of 0% to 50% CH3CN (solvent B) over 25 minutes (solvent A=50 mM PO4^−2, 5 mM tetrabutylammonium bisulfate, 2% acetonitrile [pH adjusted to 6.0 with KOH]; flow rate=1 ml min^−1; A254 nm).

OleD variant TDP-16 [4] = target: T1, OleD variant TDP-16; test: NDP screening with 2-chloro-4-nitrophenyl glucoside (9); assay type: biochemical; settings: donor 9, TDP-16, NDP as acceptor
Experimental: Reactions were allowed to proceed for 5 hours, quenched with an equal volume of 40 mM phosphoric acid (adjusted to pH 6.5 with triethylamine) and heated for 30 seconds on a heat block. Following, samples were centrifuged at 10,000 g for 30 min at 0° C. and the supernatant removed for analysis. The clarified reaction mixtures were analyzed by analytical reverse-phase HPLC. HPLC was conducted with a Supelcosil LC18-T (3 μm, 150×4.6 mm) column (from Sigma-Aldrich St. Louis, Mo., USA) with a gradient of 0% B to 100% B over 20 min (A=40 mM phosphoric acid [adjusted to pH 6.5 with triethylamine]; B=10% MeOH in 40 mM phosphoric acid [adjusted to pH 6.5 with triethylamine]; flow rate=0.5 mL min-1) and detection monitored at 254 nm.

OleD variant = OleD variant (Streptomyces antibioticus, UniProt Q53685, A242L/P67T/Q268V/S132F); test: β-D-glucoside screening: reverse reaction forming UDP-/TDP-glucose; assay type: biochemical; settings: in combination with OleD variant TDP-16
OleD variant, sequence (Q53685 other isoform, or with tags, fused parts or gaps P55A/P67T/R82V/R83E/T84P/S132F/A242L/Q268V): as above
Source text: The availability of a GT capable of utilizing a wide array of both simple aromatic acceptors and sugar nucleotides set the stage for this systematic study. With the aid of a crystal structure (10), previous directed evolution and engineering of an inverting macrolide-inactivating GT from S. antibioticus (OleD) identified several highly permissive variants for both sugar nucleotides (14 known sugar substrates) and acceptors (>70 structurally diverse known substrates) in the context of the forward reaction (11-16). Utilizing the aglycons recognized in forward reactions as a template, a set of 32 putative ü-D-glucopyranosides donors were synthesized and tested against a series of OleD variants in reverse reactions for production of UDP-J-D-glucose (UDP-Glc, 33a) in the presence of UDP (FIG. 14a). The syntheses of these putative donors required 1-3 steps (37% average overall yield) and, in all but one case (19), provided the desired E-anomer exclusively. Of the 32 putative donors evaluated, 9 (1-9) led to UDP-Glc (33a) formation with all variants examined (FIG. 14b).
Reactions containing 2.1 μM (10 μg) of purified OleD variant, 1 mM of UDP or TDP, and 1 mM of β-D-glucopyranoside (1-32) in Tris-HCl (50 mM, pH 8.5) with a final volume of 100 μl were incubated at room temperature for 1 hour. Samples were frozen in a bath of dry ice and acetone and stored at −20° C. […]

[5] = Solubility of donor under kinetic assay conditions; assay type: physicochemical; settings: 50 mM Tris-HCl buffer, aqueous buffer; 50 mM Tris-HCl (pH 8.5)

OleD variant P67T/S312F/A242L/Q268V, sequence (Q53685 other isoform, or with tags, fused parts or gaps P55A/P67T/R82V/R83E/T84P/S132F/A242L/Q268V): as above

OCC1O[C@@H](Oc2ccccc2Cl)C(O)[C@@H](O)[C@@H]1O (stereo partly drawn) [Compound 4, 2-chlorophenyl-β-D-glucopyranoside]
ΔG°pH8.5 of donor to UDP-Glc transformation [1]: +2.55 kcal mol-1

O=C(O)c1cn(C2CC2)c2cc(N3CCNCC3)c(F)cc2c1=O [Compound 92, ciprofloxacin]
response in colorimetric screen (three standard deviations above the mean for control reactions) (OleD variant TDP-16 [2]): hits

O=[N+]([O-])c1ccc(O[C@H]2OC[C@@H](O)[C@H](O)[C@H]2O)c(Cl)c1 [α-anomer of 38]
turnover as donor substrate (anomer) (OleD variant TDP-16 [3]): no turnover

Nc1ncnc2c1ncn2[C@@H]1O[C@H](COP(=O)(O)OP(=O)(O)O)[C@@H](O)[C@H]1O [ADP]
NDP-sugar formation efficiency (OleD variant TDP-16 [4]): much lower efficiency

O=[N+]([O-])c1ccc(O[C@@H]2OC(CO)[C@@H](O)[C@H](O)C2O)c(Cl)c1 (stereo partly drawn) [Compound 9, 2-chloro-4-nitrophenyl-β-D-glucopyranoside]
overall yields of UDP-Glc (33a) or TDP-Glc (33b) (OleD variant): best overall yields | solubility [5]: ~25 mM (≈ 8390 µg/mL) | ΔG°pH8.5 of donor to UDP-Glc transformation [1]: −2.78 kcal mol-1

Nc1nc2c(ncn2[C@@H]2O[C@H](COP(=O)(O)OP(=O)(O)O)[C@@H](O)[C@H]2O)c(=O)[nH]1 [GDP]
NDP-sugar formation efficiency (OleD variant TDP-16 [4]): much lower efficiency

O=c1c(-c2ccc(O)cc2)coc2cc(O)cc(O)c12 [Compound 62, genistein]
response in colorimetric screen (three standard deviations above the mean for control reactions) (OleD variant TDP-16 [2]): hits

— patent US20130004979A1, “GLYCOSYLTRANSFERASE REVERSIBILITY FOR SUGAR NUCLEOTIDE SYNTHESIS AND MICROSCALE SCANNING” (WISCONSIN ALUMNI RESEARCH FOUNDATION, priority 2010, published 2013)
